Source: patent publication US20170014455A1, “INDUCING BROWN FAT FATE AND FUNCTION” (The J. David Gladstone Instiutes, a testamentary trust …, priority 2014, published 2017)

Key:
[1] = test system: C3H10T1/2 cells; assay: Ciclopirox and IOX2 gene expression in C3H10T1/2 cells; type: cell-based; details: 0.1 μM to 50 μM
Description: (§1) C2C12, 3T3-L1 and C3H10T1/2 cells were purchased from ATCC. Primary brown pre-adipocytes were kindly donated by Prof. C. Ronald Kahn (Harvard University). Primary myoblasts were purified from mouse limb muscles and cultured in growth medium (F10+20% FBS+5 ng/ml bFGF) in Matrigel-coated plates (Xiao et al., Cell Res 21, 350-364 (2011)). Adipocyte differentiation was induced by treating cells for 2 days in basal adipogenesis medium (AM) (850 nM insulin, 1 nM T3, 0.5 mM isobuylmethylxanthine, […] indomethacin, 5 μM dexamethasone in10% FBS DMEM). Then cells were switched to 10% FBS DMEM containing 850 nM insulin and 1 nM T3 for another 4-6 days. To stimulate thermogenesis, cells were stimulated with 10 μM forskolin for 4 h.
(§2) Total RNA from cell lines were purified using Qiagen kit, and total RNA from mouse tissues was extracted using Trizol. Complementary DNA was prepared from total RNA with the iScript DNA synthesis kit (Bio-Rad). Quantitative PCR reactions contained SYBR-Green fluorescent dye (ABI). RT-PCR was also used to confirm some gene expression. Relative mRNA expression was determined by the ΔΔ-Ct method with GAPDH as an endogenous control.
C3H10T1/2 cells were incubated in concentrations of ciclopirox and IOX2 that varied from 0.1 μM to 50 μM. Gene expression levels of genes correlated with the brown adipose tissue phenotype was measured using procedures described in Example 1.

[2] = test system: 3T3-L1 white pre-adipocytes; assay: Differentiation and gene expression of 3T3-L1 white pre-adipocytes under brown adipogenic conditions; type: cell-based
Description: (§3) C2C12, 3T3-L1 and C3H10T1/2 cells were purchased from ATCC. Primary brown pre-adipocytes were kindly donated by Prof. C. Ronald Kahn (Harvard University). […] Then cells were switched to 10% FBS DMEM containing 850 nM insulin and 1 nM T3 for another 4-6 days. To stimulate thermogenesis, cells were stimulated with 10 μM forskolin for 4 h.
as §2

[3] = test system: C3H10T1/2 mesenchymal cells; assay: Adipogenic induction and gene expression in C3H10T1/2 mesenchymal cells; type: cell-based
Description: as §3, §2

[4] = test system: primary brown pre-adipocytes (pre-BAT); assay: Differentiation of primary brown pre-adipocytes; type: cell-based
Description: as §1, §2
Primary brown pre-adipocytes cells efficiently differentiated into brown adipose tissue in the conventional adipogenesis medium.

[5] = test system: C2C12 cells; details: 2-day treatment
Description: Mouse genome-wide gene expression analyses were performed using Affymetrix Mouse Gene 1.0 ST Array. […] Microarray analyses were performed in duplicate from independent biologic samples, according to the standard Affymetrix Genechip protocol. Data were normalized and analyzed using Affymetrix Expression Console and Transcriptome Analysis Console (TAC) software. […] The differential expression gene list was further analyzed in DAVID GO functional annotation and GO-Elite (Zambon et al., Bioinformatics 28: 2209-2210 (2012)).

[6] = test system: primary mouse embryonic fibroblast (MEF) cells; assay: Adipogenesis and gene expression in primary mouse embryonic fibroblasts; type: cell-based
[7] = Oral bexarotene in chow-fed mice: body weight, indirect calorimetry, fat depots, tissue qPCR; type: in vivo, C57BL/6N mice; details: 50 mg/kg/day oral, 4 weeks
Description: as §2
C57BL/6N mice were fed ad libitum a standard laboratory chow diet (LabDiet 5053, LabDiet, Purina Mills, Richmond, Ind.). Animals were housed under 12-hour light-dark cycles with controlled temperature (23±1° C.). […] All animal experiments were conducted in accordance with the institutional Guidelines for humane treatment of laboratory animals of HKU Animal Care and Use Committee.
Whole-body oxygen consumption was measured using an open circuit indirect calorimetry system with automatic temperature and light controls (Columbus Instruments). Mice had access ad libitum to chow and water in respiration chambers, and data were recorded for a 48 h period […] acclimatized for 24 h.

[8] = test system: C2C12 myoblast cell line; assay: Adipogenesis of C2C12 myoblasts, Oil-red-O staining of lipid droplets (high-throughput phenotypic screen and follow-up); type: cell-based, mouse
Description: as §1
To identify small molecules that mimic the BAT-inducing activity of Prdm16, a high-throughput phenotypic screen of 20,000 compounds was performed using the C2C12 myoblast cell line with lipid droplets stained by Oil-red-O (ORO) as readout (FIG. 1A). […] In the basal adipogenesis medium (AM), no adipocyte-like cells could be induced from C2C12 myoblasts.

[9] = test system: C2C12 cells over-expressing RXRα, RXRβ or RXRγ; assay: Bexarotene in C2C12 cells overexpressing RXRα, RXRβ or RXRγ; type: cell-based, mouse
Description: as §1
Mouse retinoid X receptor-alpha (RXRα) and retinoid X receptor-gamma (RXRγ) plasmids were from Dr. Ronald Evans (Salk Institute) and mouse RXRβ plasmid was purchased from Origene. These three RXR fragments were subcloned into pMXs vectors to generate a retrovirus construct (Yamanaka lab, Gladstone Institutes). Non-target shRNA(shNT), shRXRα, shRXRβ, and shRXRγ lentivirus constructs were purchased from Sigma-Aldrich. Retrovirus and lentivirus constructs were packaged in Plat E and 293T cells, respectively.
as §2
To further characterize the role of retinoid receptors, the RXRα, RXRβ and RXRγ subtype receptors were overexpressed in C2C12 cells.

[10] = test system: primary myoblasts; assay: Bexarotene with PRDM16 overexpression in primary myoblasts; type: cell-based, mouse
Description: as §1, §2

[11] = Bexarotene in high fat diet mice: body weight, fat weights, GTT, ITT; type: in vivo, C57BL/6J mice; details: 50 mg/kg daily i.p., high fat diet 4 weeks
Description: Male mice (8-week-old, C57BL/6J) were housed in metabolism cages and maintained on a 12 h light-dark cycle at 23° C. The mice were fed a high fat diet (HFD) (21.9 kJ/g, 60% of energy as fat, 20% of energy as protein, 20% of energy as carbohydrate; D12492; Research Diet, New Brunswick, N.J., USA) for four weeks.
Glucose and insulin tolerance tests were performed on the mice at the end of the four week dosing period. Mice were fasted overnight and injected intraperitoneally (i.p.) with 20% glucose at a dose of 2 g/kg body weight for glucose tolerance tests (GTTs). For insulin tolerance tests (ITTs), mice were starved for 6 h and i.p. injected with 0.5 U/kg body weight of recombinant human insulin (Eli Lilly). Blood glucose was monitored from the tail vein blood using a glucometer (ACCU-CHEK Advantage; Roche Diagnostics China, Shanghai, China) at various time points. Mouse body weight, subcutaneous (inguinal fat; SubQ fat), and epididymal adipose tissue weight (epidi weight) were also determined at the end of the 4 week test.

[12] = test system: C2C12 cells; assay: Real-time PCR gene expression in C2C12 cells during adipogenesis; type: cell-based, mouse
Description: as §1, §2

[13] = brown adipogenic differentiation conditions

Structure (SMILES): Cc1cc(C2CCCCC2)n(O)c(=O)c1 [ciclopirox]
- expression of PPARγ and several brown adipocyte-specific genes [1]: significantly induced
- response of BAT-like adipocytes to forskolin (Ucp1, Pgc1α) [1]: readily responded to forskolin

Structure (SMILES): O=C(O)CNC(=O)c1c(O)c2ccccc2n(Cc2ccccc2)c1=O [IOX2]
- expression of PPARγ and several brown adipocyte-specific genes [1]: significantly induced
- response of BAT-like adipocytes to forskolin (Ucp1, Pgc1α) [1]: readily responded to forskolin

Structure (SMILES): C=C(c1ccc(C(=O)O)cc1)c1cc2c(cc1C)C(C)(C)CCC2(C)C [bexarotene]
- response to forskolin stimulation [2]: more robust response
- BAT features (small lipid droplets, Ucp1 expression) [2, 13]: induced
- white adipose tissue differentiation and PPARγ expression [2, 13]: significantly suppressed
- induction of Ucp1 and Pgc1α expression compared with cPGI2 [3]: much greater than that of the COX-2 agonist cPGI2
- brown phenotype (thermogenic gene expression to forskolin stimulation) ([3]; 2 days at the beginning of adipogenic induction): induced the brown phenotype
- small multilocular lipid droplets and BAT-specific genes Ucp1, Prdm16, PPARα, Pgc1α, Cox7a1, Cox8b ([3]; RXRα or RXRγ overexpression, adipogenic induction): induced
- expression of PPARγ and BAT-associated genes incl. Prdm16 and Pgc1α [4]: higher levels of expression
- induction of Ucp1 and Pgc1α expression in response to forskolin ([4]; differentiated BAT adipocytes): potentiated
- expression of browning genes Fgf21, Pgc1α, Ppargc1a, Acsl1, Tbx15, Ptgs2, G0S2 [5]: increased expression
- white adipogenesis-associated genes Bmp4 and Egr2 [5]: repressed
- brown phenotype / browning [6]: induced a strong brown phenotype
- white adipogenic phenotype [6]: apparently suppressing
- Ucp1 expression ([6]; even without forskolin stimulation): induced in a dose-dependent manner
- Ucp1 expression in subcutaneous white adipose tissue (subWAT) ([7]; qPCR): significantly induced although to a lesser extent
- thermogenic gene expression (Ucp1, Pgc1α) in brown adipose tissue ([7]; qPCR): marked augmentation
- interscapular brown adipose tissue mass (absolute and portion of body weight) ([7]; vs control): increased significantly
- lipid droplets in brown adipose tissue (H&E) ([7]; vs control): similar, if not smaller
- white adipose tissue depots (subWAT, epiWAT) mass ([7]; vs control): no statistically significant change
- body weight gain ([7]; vs saline): smaller gain in body weight
- carbon dioxide release (VCO2) ([7]; vs saline): released more CO2
- oxygen consumption (VO2) ([7]; vs saline): consumed more oxygen
- physical activity ([7]; vs saline): without changes in physical activity
- total energy expenditure (heat generation) ([7]; vs saline): significantly more total energy was expended
- adipogenic reprogramming ([8]; added for 2 days in basal adipogenesis medium): dramatically initiated adipogenic reprogramming in C2C12 cells in a dose-dependent manner
- appearance of lipid droplets (Oil-red-O) ([8]; high-throughput screen of 20,000 compounds): led to the appearance of lipid droplets
- cells reprogrammed to brown adipose-like cells with multilocular lipid droplets ([9]; RXRα or RXRγ overexpression): nearly all cells
- Prdm16 and Ucp1 expression at early stage ([9]; RXRα-overexpressed C2C12 cells, before typical adipocytes appeared): induced Prdm16 expression and even more dramatically induced Ucp1 expression
- myogenic genes Myf5, MyoD, MyoG and MHCβ ([9]; bexarotene/RXR reprogrammed cells): dramatically attenuated
- Ucp1 expression response to forskolin ([9]; bexarotene/RXR-induced BAT-like cells): robustly responded
- potentiation of Prdm16 overexpression-induced Ucp1 expression ([10]; Prdm16 overexpression): more than fourfold
- lipid droplet size ([10]; added to PRDM16 overexpression vs PRDM16 overexpression alone): much smaller lipid droplets
- glucose tolerance test [11]: improved glucose homeostasis
- insulin tolerance test [11]: responded to insulin more sensitively
- body weight ([11]; vs control): lower body weight
- epididymal adipose tissue ([11]; vs control): less epididymal adipose tissue
- subcutaneous (inguinal) fat ([11]; vs control): less subcutaneous fat
- levels of PPARγ, Fabp4, CD36 and RXR/PPARγ targets Pex11a, Angpt14, HK2 ([12]; Day 2, qPCR confirmation): significantly increased
- expression of PPARγ, Prdm16 and Pgc1α ([12]; adipogenesis medium, qPCR Day 6): significantly induced
- response of induced BAT-like adipocytes to forskolin (Ucp1, Pgc1α) ([12]; forskolin stimulation 4 h): readily responded to forskolin

Structure (SMILES): CN1c2ccc([N+](=O)[O-])cc2N=C(c2ccc(C(=O)O)cc2)c2cc3c(cc21)C(C)(C)CCC3(C)C [HX531]
- white adipose tissue adipogenesis [2]: promoted
- white adipose tissue adipogenesis [3]: promoted
- Bex-induced BAT differentiation ([4]; with bexarotene): reduced
- bexarotene-induced brown adipogenic induction ([8]; with bexarotene, first 2 days, 10 μM each): completely abolished
